{"source": "patent US7872046B2", "about": "“Crystalline form of a (3S)-aminomethyl-5-methyl-hexanoic acid prodrug and methods of use” (Xenoport, Inc., priority 2008, dated 2011)", "key": {"[1]": {"details": "dosed either orally or directly into the colon of a mammal; cited from earlier work"}, "[2]": {"experiment": "Pregabalin pharmacokinetics following intracolonic administration in monkeys (Example 12)", "assay_type": "in vivo, cynomologus monkeys", "details": "10 mg-eq PG/kg", "protocol": "The pharmacokinetics of pregabalin and crystalline calcium (3S)-{[(1R)-isobutanoyloxyethoxy]carbonylaminomethyl}-5-methyl-hexanoate hydrate following intracolonic administration in monkeys was determined.\nA group of four male cynomologus monkeys received an intracolonic dose of pregabalin or crystalline calcium (3S)-{[(1R)-isobutanoyloxyethoxy]carbonylaminomethyl}-5-methyl-hexanoate hydrate (10 mg-eq pregabalin/kg). A 7-day wash-out period was allowed between treatments. Blood samples (300 μL) were collected from all animals prior to dosing and at intervals up to 24 hours post-dosing and immediately quenched in tubes containing K2EDTA to prevent hydrolysis. Two aliquots (100 μL each) were immediately quenched with 300 μL methanol. All quenched blood samples were subsequently analyzed for (3S)-{[(1R)-isobutanoyloxyethoxy]carbonylaminomethyl}-5-methyl-hexanoate free acid and pregabalin using LC-MS/MS.\nPregabalin was obtained from Teva (Peteh Tiqva, Israel). Crystalline calcium (3S)-{[(1R)-isobutanoyloxyethoxy]carbonylaminomethyl}-5-methyl-hexanoate hydrate was synthesized from commercial pregabalin according to Examples 1-6.\nCynomologus monkeys (body weight approximately 2.5 kg to 5.0 kg) were used in the study. Monkeys were fasted overnight and for the first 4 hours after dose administration. Water was provided ad libitum. For intracolonic administration, pregabalin or crystalline calcium (3S)-{[(1R)-isobutanoyloxyethoxy]carbonylaminomethyl}-5-methyl-hexanoate hydrate was suspended in 0.5% methylcellulose/0.1% Tween 80 in sodium phosphate buffer at pH 7.4. Blood samples were analyzed and pharmacokinetic analysis performed as described in Example 14.\n(§1) Blood concentration data for all analytes were analyzed by non-compartmental methods using WinNonlin (WinNonlin™ Software, version 5.2, Pharsight Corp. Mountain View, Calif.). Non-compartmental analysis was performed on individual profiles in each animal. All concentration values below the limit of quantitation (BLQ) were treated as 0 (zero) for the pharmacokinetic analysis. Low concentration values at predose were treated as BLQ. Nominal sample collection time points were used for the calculation of pharmacokinetic parameters. All concentration data were plotted using SigmaPlot (SigmaPlot™, Version 9.0, Systat Software Inc., Richmond, Calif.).\n(§2) The maximum concentration (Cmax) and time to Cmax(Tmax) were obtained by observation. The apparent elimination half-life (T1/2) was obtained by linear regression of three or more log-transformed data points in the terminal phase. The area under the concentration versus time curve (AUClast) was obtained by the linear trapezoidal method using concentration data up to the last quantifiable concentration. The AUC value extrapolated to infinity (AUCinf) was calculated as: AUCinf=AUClast+Clast/λz where tlast is the time of the last quantifiable concentration (Clast) and λz is the rate constant of the apparent terminal elimination phase.\n(§3) The bioavailability (F) of pregabalin after extravascular dosing of pregabalin or prodrug was calculated by comparison to data following intravenous administration of pregabalin as follows: F(%)=100×(AUCex/Doseex)/(AUCiv/Doseiv) where AUCex is the area under the pregabalin concentration versus time curve in μg×hr/mL following extravascular administration of pregabalin or crystalline calcium (3S)-{[(1R)-isobutanoyloxyethoxy]carbonylaminomethyl}-5-methyl-hexanoate hydrate formulation; Doseex is the extravascular dose expressed in mg-equivalents of pregabalin/kg body weight; AUCiv is the area under the pregabalin concentration versus time curve in μg×hr/mL following intravenous administration of pregabalin; and Doseiv is the intravenous dose expressed in mg-equivalents of pregabalin/kg body weight."}, "[3]": {"experiment": "Pregabalin pharmacokinetics following administration of oral tablet formulations in monkeys (Example 14)", "assay_type": "in vivo, cynomolgus monkeys", "protocol": "One group of four male cynomolgus monkeys was used for the study. The mean body weight was approximately 2.9 kg at the start of the study and increased over the 9 months of the study to approximately 3.4 kg. The animals were fasted overnight and for the first 4 hours of the study after administration of each test formulation. Water was provided ad libitum.\nAll formulations were evaluated in a single group of four fasted male cynomolgus monkeys with at least 5 days washout between treatments. The IR tablet formulation was administered at 75 mg-eq pregabalin (1 tablet per animal). Three different SR tablet formulations were dosed orally at either 75 mg-eq. pregabalin or 69 mg-eq. pregabalin (1 tablet each per animal).\nBlood samples were obtained from all animals at intervals up to 24 hours post-dosing. Approximately 0.3 mL of blood was collected in pre-chilled K2EDTA tubes containing 0.3 mL of methanol. Within 30 minutes, the blood samples were stored at or below −70° C.\nQuenched blood samples were frozen and stored at −20° C. prior to analysis. Samples were analyzed by a sensitive and specific LC-MS/MS method for simultaneous determination of (3S)-{[(1R)-isobutanoyloxyethoxy]carbonylaminomethyl}-5-methyl-hexanoate free acid and pregabalin concentrations.\nas §1, §2\nas §3, with “weight. […]” for “weight.”"}, "[4]": {"experiment": "Hygroscopicity of solid forms", "assay_type": "physicochemical", "details": "solid material"}, "[5]": {"details": "IR tablet, 75 mg-eq PG (22.4 mg-eq PG/kg)"}, "[6]": {"details": "SR1 tablet, 75 mg-eq PG (22.3 mg-eq PG/kg)"}, "[7]": {"details": "SR2 tablet, 69 mg-eq PG (21.1 mg-eq PG/kg)"}, "[8]": {"details": "SR tablet, 75 mg-eq PG (21.7 mg-eq PG/kg)"}}}
{"compound": "CC(C)C[C@H](CNC(=O)OC(C)OC(=O)C(C)C)CC(=O)O", "note": "(stereo partly drawn) [(1), (3S)-{[1-Isobutanoyloxyethoxy]carbonylaminomethyl}-5-methyl-hexanoic acid]", "values": [{"measurement": "bioavailability as pregabalin", "setting": "[1]", "result": "high bioavailability"}]}
{"compound": "CC(C)C[C@H](CN)CC(=O)O", "note": "[Pregabalin, (3S)-aminomethyl-5-methyl-hexanoic acid]", "values": [{"measurement": "AUC(0-inf)", "setting": "[2]; male, monkey, whole blood, 10 mg/kg, read-out: AUCinf, pregabalin in blood, mean (SD)", "result": 3100, "unit": "ng·h/mL"}, {"measurement": "AUC(0-t)", "setting": "[2]; male, monkey, whole blood, 10 mg/kg, read-out: AUClast, pregabalin in blood, mean (SD)", "result": 2200, "unit": "ng·h/mL"}, {"measurement": "Cmax", "setting": "[2]; male, monkey, whole blood, 10 mg/kg, read-out: Cmax, pregabalin in blood, mean (SD)", "result": 240, "unit": "ng/mL"}, {"measurement": "half-life", "setting": "[2]; male, monkey, whole blood, 10 mg/kg, read-out: T1/2, pregabalin in blood, mean (SD) (converted)", "result": 6.15, "unit": "h"}, {"measurement": "Tmax", "setting": "[2]; male, monkey, whole blood, 10 mg/kg, read-out: Tmax, pregabalin in blood, mean (SD)", "result": 0.5, "unit": "h"}, {"measurement": "bioavailability", "setting": "[2]; male, monkey, whole blood, other: intracolonic, 8 mg/kg, read-out: F, bioavailability of pregabalin relative to IV pregabalin at 8 mg/kg, mean (SD)", "result": 2.7, "unit": "%"}, {"measurement": "F, bioavailability (based on AUClast) relative to AUCinf of intravenous pregabalin at 8 mg/kg, mean (SD)", "setting": "[3]; LYRICA capsules, 150 mg-eq PG (52.4 mg-eq PG/kg)", "result": "41 (9) %"}, {"measurement": "AUC(0-t)", "setting": "[3]; male, cynomolgus monkey, whole blood, LYRICA capsules, 150 mg-eq PG (52.4 mg-eq PG/kg), read-out: AUClast, pregabalin in blood, mean (SD)", "result": 188000, "unit": "ng·h/mL"}, {"measurement": "Cmax", "setting": "[3]; male, cynomolgus monkey, whole blood, LYRICA capsules, 150 mg-eq PG (52.4 mg-eq PG/kg), read-out: Cmax, pregabalin in blood, mean (SD)", "result": 21900, "unit": "ng/mL"}, {"measurement": "Tmax", "setting": "[3]; male, cynomolgus monkey, whole blood, LYRICA capsules, 150 mg-eq PG (52.4 mg-eq PG/kg), read-out: Tmax, pregabalin in blood, mean (SD)", "result": 3, "unit": "h"}]}
{"compound": "calcium (3S)-{[(1R)-isobutanoyloxyethoxy]carbonylaminomethyl}-5-methyl-hexanoate hydrate [(3a)]", "values": [{"measurement": "hygroscopicity", "setting": "[4]", "result": "hygroscopic"}, {"measurement": "AUCinf, pregabalin in blood, mean (SD)", "setting": "[2]", "result": "55.9 (12.1) μg × hr/mL"}, {"measurement": "AUClast, pregabalin in blood, mean (SD)", "setting": "[2]", "result": "54.5 (11.3) μg × hr/mL"}, {"measurement": "Cmax, pregabalin in blood, mean (SD)", "setting": "[2]", "result": "7.54 (1.89) μg/mL"}, {"measurement": "T1/2, pregabalin in blood, mean (SD)", "setting": "[2]", "result": "4.17 (1.15) hr"}, {"measurement": "Tmax, pregabalin in blood, mean (SD)", "setting": "[2]", "result": "0.88 (0.25) hr"}, {"measurement": "AUClast, pregabalin in blood, mean (SD)", "setting": "[3]; [5]", "result": "163 (25) μg × hr/mL"}, {"measurement": "Cmax, pregabalin in blood, mean (SD)", "setting": "[3]; [5]", "result": "19.3 (2.4) μg/mL"}, {"measurement": "F, bioavailability (based on AUClast) relative to AUCinf of intravenous pregabalin at 8 mg/kg, mean (SD)", "setting": "[3]; [5]", "result": "82 (13) %"}, {"measurement": "Tmax, pregabalin in blood, mean (SD)", "setting": "[3]; [5]", "result": "2.0 (1.4) hr"}, {"measurement": "AUClast, pregabalin in blood, mean (SD)", "setting": "[3]; [6]", "result": "104 (16) μg × hr/mL"}, {"measurement": "Cmax, pregabalin in blood, mean (SD)", "setting": "[3]; [6]", "result": "7.2 (1.2) μg/mL"}, {"measurement": "F, bioavailability (based on AUClast) relative to AUCinf of intravenous pregabalin at 8 mg/kg, mean (SD)", "setting": "[3]; [6]", "result": "52 (6) %"}, {"measurement": "Tmax, pregabalin in blood, mean (SD)", "setting": "[3]; [6]", "result": "8.0 (6.9) hr"}, {"measurement": "AUClast, pregabalin in blood, mean (SD)", "setting": "[3]; [7]", "result": "70 (1) μg × hr/mL"}, {"measurement": "Cmax, pregabalin in blood, mean (SD)", "setting": "[3]; [7]", "result": "5.0 (0.3) μg/mL"}, {"measurement": "F, bioavailability (based on AUClast) relative to AUCinf of intravenous pregabalin at 8 mg/kg, mean (SD)", "setting": "[3]; [7]", "result": "35 (9) %"}, {"measurement": "Tmax, pregabalin in blood, mean (SD)", "setting": "[3]; [7]", "result": "14.0 (3.5) hr"}, {"measurement": "AUClast, pregabalin in blood, mean (SD)", "setting": "[3]; [8]", "result": "137 (40) μg × hr/mL"}, {"measurement": "Cmax, pregabalin in blood, mean (SD)", "setting": "[3]; [8]", "result": "13.5 (3.2) μg/mL"}, {"measurement": "F, bioavailability (based on AUClast) relative to AUCinf of intravenous pregabalin at 8 mg/kg, mean (SD)", "setting": "[3]; [8]", "result": "70 (16) %"}, {"measurement": "Tmax, pregabalin in blood, mean (SD)", "setting": "[3]; [8]", "result": "3.2 (1.5) hr"}]}
